Data taken from patent US9815851B2, “Pyrrolo carboxamides as modulators of orphan nuclear receptor RAR-related orphan receptor-gamma (RORγ, NR1F3) activity and for the treatment of chronic inflammatory and autoimmune diseases” (PHENEX PHARMACEUTICALS AG, priority 2011, dated 2017).
Like-named read-outs stand apart in the source and are kept apart here.

Experiments:
[1] = biological target: T1, RORγ ligand binding domain (LBD) (Homo sapiens, UniProt P51449); experiment: TR-FRET Activity Assay (ligand sensing, RORγ-LBD / coactivator peptide interaction, LANCE); type: biochemical
T1 construct: made in house; host or cells: E. coli BL-21 (BL3), vector pDEST15
T1 sequence (P51449 269-508 limits assumed): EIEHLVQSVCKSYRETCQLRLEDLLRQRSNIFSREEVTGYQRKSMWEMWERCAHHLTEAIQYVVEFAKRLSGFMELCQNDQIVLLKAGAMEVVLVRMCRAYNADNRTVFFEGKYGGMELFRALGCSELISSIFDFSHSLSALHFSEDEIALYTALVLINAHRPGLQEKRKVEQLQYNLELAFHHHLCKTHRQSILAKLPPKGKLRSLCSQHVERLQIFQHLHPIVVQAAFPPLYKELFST

RORγ = biological target: T2, RORγ (UniProt P51449); experiment: RORγ Gal4 Reporter Gene Assay in 293T cells (firefly and renilla luciferase); type: cell-based, human
T2 sequence (P51449 1-518): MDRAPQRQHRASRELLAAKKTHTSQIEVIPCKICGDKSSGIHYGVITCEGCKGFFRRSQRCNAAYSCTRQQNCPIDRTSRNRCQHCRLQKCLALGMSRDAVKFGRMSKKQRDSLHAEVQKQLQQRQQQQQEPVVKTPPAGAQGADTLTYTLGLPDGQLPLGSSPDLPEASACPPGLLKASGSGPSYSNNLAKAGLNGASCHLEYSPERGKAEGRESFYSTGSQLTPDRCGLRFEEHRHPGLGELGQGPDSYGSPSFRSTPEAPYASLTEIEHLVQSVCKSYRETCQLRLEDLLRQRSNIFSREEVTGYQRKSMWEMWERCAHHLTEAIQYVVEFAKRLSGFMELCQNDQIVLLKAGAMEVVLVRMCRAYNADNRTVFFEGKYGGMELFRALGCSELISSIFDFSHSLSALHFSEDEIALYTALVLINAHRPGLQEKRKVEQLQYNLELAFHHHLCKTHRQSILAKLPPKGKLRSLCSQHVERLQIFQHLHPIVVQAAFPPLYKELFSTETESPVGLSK

[2] = first value of the cell FRET/FF/REN, TR-FRET activity assay, read-out: pIC50 (FRET) (converted)
[3] = second value of the cell, Gal4 reporter gene assay in 293T cells, firefly luciferase
[4] = third value of the cell, Gal4 reporter gene assay in 293T cells, renilla normalised luciferase

Row | SMILES | IC50 [1, 2] | pIC50 (FF) (RORγ; [3]) | pIC50 (REN) (RORγ; [4]) | IC50 [1] | pIC50 (FF) (RORγ) | pIC50 (REN) (RORγ)
1 | Cc1c(C(=O)NCC(C)(C)C(=O)O)cc(-c2ccc(S(=O)(=O)NC(C)(C)C)c(OC(F)(F)F)c2)n1CC1CCCCC1 [17/173] | 316 nM | 7.3 | 7.3 |  |  | 
2 | Cc1c(C(=O)N[C@H]2C[C@H](C(=O)O)C2)cc(-c2cc(C(C)(C)C)c3c(c2)C2(CCO3)CC2)n1CC1CCCCC1 [17/55] | 2000 nM | 7.5 | 7.6 |  |  | 
3 | Cc1c(C(=O)NCC(C)(C)NC(=O)C(C)O)cc(-c2cc(C(C)(C)C)c3c(c2)C2(CCO3)CC2)n1CC1CCCCC1 (stereo not drawn) [17/123] |  |  |  | 3160 nM | 5.5/7.0/7.0 | 5.5/7.0/7.0
4 | Cc1c(C(=O)NC2CCOCC2)cc(-c2cc(C(=O)NC(C)C)cc(C(C)(C)O)c2)n1CC1CCCCC1 [17/323] | 7940 nM | 5.6 | 5.7 |  |  | 
5 | Cc1c(C(=O)NC2CCOCC2)cc(-c2ccc(C(=O)NC3CCCCC3)c(C(F)(F)F)c2)n1CC1CCCCC1 [6/9] | 10000 nM | 6.4 | 6.2 |  |  | 
6 | Cc1c(C(=O)N2CC3(CCOCC3)C2)cc(-c2ccc(S(=O)(=O)NC(C)(C)C)c(C(F)(F)F)c2)n1CC1CCCCC1 [17/211] | 501 nM | 8.0 | 8.0 |  |  | 
7 | Cc1c(C(=O)NC2COC2)cc(-c2ccc(C(=O)N3CCCCC3)c(C(C)(C)C)c2)n1CC1CCCCC1 [1/34] | 1260 nM | 6.8 | 6.7 |  |  | 
8 | Cc1c(C(=O)NCC(C)(C)O)cc(-c2ccc(S(=O)(=O)NC(C)(C)C)c3ccccc23)n1CC1CCC(F)(F)CC1 [17/278] | 2510 nM | 7.0 | 7.0 |  |  | 
9 | Cc1c(C(=O)NC2CCC(C)(C(=O)O)CC2)cc(-c2ccc(S(=O)(=O)NC(C)(C)C)c(C(F)(F)F)c2)n1CC1CCCCC1 (stereo not drawn) [17/259] | 1000 nM | 7.2 | 7.2 |  |  | 
10 | COCC(=O)NC(C)(C)CNC(=O)c1cc(-c2cc(C(C)(C)C)cc(C3(C)CC3)c2)n(CC2CCCCC2)c1C [17/122] |  |  |  | 398 nM | 6.4/7.6/7.5 | 6.4/7.6/7.5
11 | Cc1c(C(N)=O)cc(-c2cc(C(C)(C)C)cc(C3(C)CC3)c2)n1CC1CCCCC1 [1/89] | 251 nM | 6.3 | 6.2 |  |  | 
12 | Cc1c(C(=O)NC2COC2)cc(-c2cc(C(C)(C)C)cc(C3(C)CC3)c2)n1CC1CCCCC1 [1/81] | 200 nM | 7.4 | 7.4 |  |  | 
13 | Cc1c(C(=O)NCC(C)(C)O)cc(-c2cc(C(=O)NC(C)C)cc(C3(C)CC3)c2)n1CC1CCCCC1 [1/112] | 501 nM | 7.1 | 7.1 |  |  | 
14 | Cc1c(C(=O)NCC(C)(C)O)cc(-c2ccc(S(=O)(=O)NC(C)(C)C)c3ccccc23)n1CC1CCCC(F)C1 (stereo not drawn) [17/370] | 2000 nM | 7.2 | 7.3 |  |  | 
15 | Cc1c(S(=O)(=O)NC(C)(C)C)ccc(-c2cc(C(=O)NCC3(O)CCS(=O)(=O)CC3)c(C)n2CC2CCCCC2)c1Cl [17/290] | 631 nM | 7.6 | 7.6 |  |  | 
16 | Cc1c(C(=O)NC2CCOCC2)cc(-c2cc(C(C)(C)O)c3c(c2)C2(CCO3)CC2)n1CC1CCCCC1 [Example 31, 1-(Cyclohexylmethyl)-5-(8-(2-hydroxypropan-2-yl)spiro[chroman-4,1′-cyclopropan]-6-yl)-2-methyl-N-(tetrahydro-2H-pyran-4-yl)-1H-pyrrole-3-carboxamide] | 1260 nM | 6.9 | 6.9 |  |  | 
17 | Cc1c(C(=O)NCC(C)(C)C(=O)NCCCCO)cc(-c2cc(C(C)(C)C)c3c(c2)C2(CCO3)CC2)n1CC1CCCCC1 [11/7] | 251 nM | 7.1 | 7.2 |  |  | 

Row | SMILES | IC50 [1, 2] | pIC50 (FF) (RORγ; [3]) | pIC50 (REN) (RORγ; [4]) | IC50 [1] | pIC50 (FF) (RORγ) | pIC50 (REN) (RORγ)
18 | Cc1c(C(=O)N2CCOCC2)cc(-c2ccc(S(=O)(=O)NC(C)(C)C)c(C(F)(F)F)c2)n1CC1CCCCC1 [17/198] |  |  |  | 501 nM | 6.3/6.8/6.9 | 6.3/6.8/6.9
19 | Cc1c(C(=O)NC2CCOCC2)cc(-c2cc(C(C)(C)O)cc(C3(C)CC3)c2)n1CC1CCCCC1 [1/43] | 1000 nM | 7.1 | 7.1 |  |  | 
20 | Cc1c(C(=O)NC2COC2)cc(-c2cc(C(C)(C)C)cc(C(C)(C)C)c2)n1S(=O)(=O)N1CCCCCC1 [7/4] | 200 nM | 7.1 | 7.1 |  |  | 
21 | Cc1c(C(=O)NC2CCOCC2)cc(-c2ccc(S(=O)(=O)NC(C)(C)C)c3ncccc23)n1CC1CCCCC1 [17/283] | 1000 nM | 6.7 | 6.8 |  |  | 
22 | Cc1c(C(=O)NC2CCOCC2)cc(-c2ccc(S(=O)(=O)NC(C)(C)C)c3cnccc23)n1CC1CCCCC1 [17/369] |  |  |  | 1260 nM | 5.9/7.5/7.5 | 5.9/7.5/7.5
23 | Cc1c(C(=O)NC2CCOCC2)cc(-c2ccc(S(=O)(=O)N3CCCC3(C)C)c(C(F)(F)F)c2)n1CC1CCCCC1 [17/84] | > 20000 nM | 7.2 | 7.2 |  |  | 
24 | Cc1c(C(=O)N[C@@H]2CCOC2)cc(-c2cc(C(C)(C)C)c3c(c2)C2(CCO3)CC2)n1CC1CCCCC1 [1/96] | 200 nM | 6.7 | 6.8 |  |  | 
25 | Cc1c(C(=O)NCC(C)(C)O)cc(-c2cc(C(C)(C)C)cc(S(=O)(=O)N(C)C(C)(C)C)c2)n1CC1CCCCC1 [9/3] | 316 nM | 7.1 | 7.1 |  |  | 
26 | CC(=O)N1CC(NC(=O)c2cc(-c3cc(C(C)(C)C)cc(C(C)(C)C)c3)n(CC3CCCCC3)c2C)C1 [Example 5, N-(1-Acetylazetidin-3-yl)-1-(cyclohexylmethyl)-5-(3,5-di-tert-butylphenyl)-2-methyl-1H-pyrrole-3-carboxamide] | 501 nM | 7.0 | 7.2 |  |  | 
27 | Cc1c(C(=O)N[C@H]2C[C@H](C(=O)O)C2)cc(-c2cc(C(=O)NCC(F)(F)F)cc(C3(C)CC3)c2)n1CC1CCCCC1 [17/357] | 2000 nM | 6.7 | 6.8 |  |  | 
28 | Cc1c(C(=O)NC2COC2)cc(-c2cc(C(=O)NC(C)(C)C)nc(C(C)(C)C)c2)n1CC1CCCCC1 [Example 6, N,6-Di-tert-butyl-4-(1-(cyclohexylmethyl)-5-methyl-4-(oxetan-3-ylcarbamoyl)-1H-pyrrol-2-yl)picolinamide] |  |  |  | 631 nM | 6.2/6.3/6.4 | 6.2/6.3/6.4
29 | Cc1c(C(=O)NCC(C)(C)CC(=O)O)cc(-c2cc(C(C)(C)C)c3c(c2)C2(CCO3)CC2)n1CC1CCCCC1 [17/19] | 794 nM | 7.5 | 7.5 |  |  | 
30 | Cc1c(C(=O)NC2CCOCC2)cc(-c2ccc(S(=O)(=O)NC(C)(C)C)c(C(F)(F)F)c2)n1[C@H](C)C1CCCCC1 [17/254] | 631 nM | 6.6 | 6.6 |  |  | 
31 | Cc1c(C(=O)NCC2(O)CC[S+]([O-])CC2)cc(-c2cc(C(C)(C)C)c3c(c2)C2(CCO3)CC2)n1CC1CCCCC1 (stereo not drawn) [17/38] | 1000 nM | 6.7 | 6.7 |  |  | 
32 | Cc1c(C(=O)NC2(C#N)CCOCC2)cc(-c2ccc(S(=O)(=O)NC(C)(C)C)c(C(C)(C)C)c2)n1CC1CCCCC1 [17/208] |  |  |  | 398 nM | 6.4/6.6/6.6 | 6.4/6.6/6.6
33 | Cc1c(C(=O)NCCCCCN2CCOCC2)cc(-c2cc(C(C)(C)C)cc(C(C)(C)C)c2)n1CC1CCCCC1 [1/75] |  |  |  | 4900 nM | 5.31/<4.7<4.7 | 5.31/<4.7<4.7
